Test results from US8703723B2, “Glycoside compounds and pharmaceutical compositions thereof” (Centrose, LLC, priority 2009, dated 2014).
Where two headings read alike, the source gives them in different places.

Experiments:
[1] = test system: A549 (NSCLC) cell line; conditions: footnote 2: data from Langenhan et al. 2005; cited from earlier work
[2] = test system: NCI-H460 (NSCLC) cell line; conditions: footnote 2: data from Langenhan et al. 2005; cited from earlier work
[3] = test system: SKOV3 (Ovarian) cell line; conditions: footnote 2: data from Langenhan et al. 2005; cited from earlier work
[4] = test system: A549 (NSCLC) cell line; assay: Cancer cell cytotoxicity assay (Calcein AM / Cell Titer-Glo), A549; format: cell-based, human
Experimental: (§1) Compounds of the invention and comparative compounds were assayed in three cancer cell lines to confirm cytotoxic activity and to set a range of concentrations to use in subsequent assays. All cell lines were maintained in RPMI medium 1640 supplemented with 10% (wt/vol) fetal bovine serum and penicillin-streptomycin (100 units/ml and 100 μg/ml). Cells were routinely checked for microbial or mycoplasma contamination and if necessary replaced. Cells were harvested by trypsinization using 0.25% trypsin and 0.1% EDTA and then counted in a ViCell XR coulter counter in duplicate, before and after dilution for assay plating. Between four to nine different types of human cancer cells were plated at a density of 10,000-15,000 cells per well of each 96-well black tissue culture treated microtiter plate, then were grown for 1 hour at 37° C. with 5% CO2/95% air in a humidified incubator to allow cells to attach before compound addition. Compound stocks (100×) were prepared in 96-well V-bottom polypropylene microtiter plates. Five serial (1:2) dilutions were made with anhydrous DMSO at 100× the final concentration used in the assay. The individual wells in compound-containing […] well plates were diluted 1:10 with complete cell culture medium and the 10× (10 μL) stocks were added to 90 μl of cells in each plate to ensure full mixing of stocks with culture media by using a Biomek FX liquid handler with 96-well head. Doxorubicin was used as the control to monitor the behavior of each cell line. Cells were incubated with the compounds for 3 to 4 days before fluorescence and luminescence reading. Test plates were removed from the incubator and washed once in sterile PBS to remove serum containing calcium esterases. Calcein AM (acetoxymethyl ester) reagent was added and the cells were incubated for 30 min at 37° C. Plates were read for emission by using a fluorescein filter (excitation 485 nm, emission 535 nm). An equal volume (30 μL) of Cell Titer-Glo reagent (Promega Corporation, Inc.) was added and incubated for 10 min at room temperature with gentle agitation to lyse the cells. Each plate was re-read for luminescence to confirm the inhibition observed in the fluorescent […] assay as a measure of cell viability. The cancer cell cytotoxicity assays were run in triplicate using ≧5 different drug concentrations, and the data were analyzed to establish statistical significance and a valid IC50 value for inhibition of cell growth, based on ≧2 log differences in drug effect.
(§2) The cancer cell cytotoxicities (determined substantially according to the method of Example 5) of various compounds of the invention and comparative compounds as determined in four to five different human cancer cell lines are shown in Table 1. The structures of the compounds listed are found in FIGS. 2-4.

[5] = test system: H1299 (NSCLC) cell line; assay: Cancer cell cytotoxicity assay (Calcein AM / Cell Titer-Glo), H1299; format: cell-based, human
Experimental: as §1, §2

[6] = test system: NCI-H460 (NSCLC) cell line; assay: Cancer cell cytotoxicity assay (Calcein AM / Cell Titer-Glo), NCI-H460; format: cell-based, human
Experimental: as §1, §2

[7] = test system: HT29 (Colorectal) cell line; assay: Cancer cell cytotoxicity assay (Calcein AM / Cell Titer-Glo), HT29; format: cell-based, human
Experimental: as §1, §2

[8] = test system: SKOV3 (Ovarian) cell line; assay: Cancer cell cytotoxicity assay (Calcein AM / Cell Titer-Glo), SKOV3; format: cell-based, human
Experimental: as §1, §2

[9] = test system: human cancer cell lines; assay: Cancer cell cytotoxicity, summary over four to five human cancer cell lines; format: cell-based; conditions: read-out: IC50 values (cancer cell cytotoxicity)
Experimental: as §1, §2

[10] = NSCLC, footnote 3: determined at same time as CEN07-117 and -121
[11] = Colorectal, footnote 3: determined at same time as CEN07-117 and -121
[12] = Ovarian, footnote 3: determined at same time as CEN07-117 and -121
[13] = NSCLC, footnote 5: determined at same time as CEN08-193
[14] = NSCLC, footnote 7: determined at same time as CEN08-180
[15] = NSCLC, footnote 4: determined at same time as CEN08-177 and -178
[16] = Colorectal, assay set not specified
[17] = Ovarian, assay set not specified

| Compound | IC50 [4, 10] | IC50 [5, 10] | IC50 [6, 10] | IC50 [7, 11] | IC50 ([5]; NSCLC, assay set not specified) | IC50 ([4]; NSCLC, assay set not specified) | IC50 ([6]; NSCLC, assay set not specified) | IC50 [7, 16] | IC50 [8, 17] | other results |
| --- | --- | --- | --- | --- | --- | --- | --- | --- | --- | --- |
| CON[C@H]1CC[C@@]2(C)[C@H](CC[C@@H]3[C@@H]2CC[C@]2(C)[C@@H](C4=CC(=O)OC4)CC[C@]32O)C1 [(3β)-3-N-methoxyaminodigitoxigenin] |  |  |  |  |  |  |  |  |  | IC50 [1]: 8300 nM; IC50 [2]: 2400 nM; IC50 [3]: 3000 nM |
| CON(C1CCC2(C)C(CCC3C2CC(O)C2(C)C(C4=CC(=O)OC4)CCC32O)C1)C1OCC(O)C(O)C1O (centres unmarked) [CEN07-117] | 340 nM | 500 nM | 350 nM | 440 nM |  |  |  |  |  | IC50 [8, 12]: 550 nM |
| CON(C1CCC2(C)C(CCC3C2CC(O)C2(C)C(C4=CC(=O)OC4)CCC32O)C1)C1OCC(O)C(O)C1O (centres unmarked) [CEN07-121] | 150 nM | 430 nM | 160 nM | 230 nM |  |  |  |  |  | IC50 [8, 12]: 300 nM |
| CON(C1CCC2(C)C(CCC3C2CCC2(C)C(C4=CC(=O)OC4)CCC32O)C1)C1OCC(O)C(O)C1O [CEN07-W-101 (23S), reference compound] | 50 nM | 170 nM | 150 nM | 100 nM | 17 nM |  |  |  |  | IC50 [4, 13]: 4 nM; IC50 [4, 14]: 9 nM; IC50 [5, 13]: 6 nM; IC50 [6, 13]: 8 nM; IC50 [6, 14]: 37 nM; IC50 ([7]; Colorectal, footnote 5: determined at same time as CEN08-193): 9 nM; IC50 ([7]; Colorectal, footnote 7: determined at same time as CEN08-180): 46 nM; IC50 ([8]; Ovarian, footnote 5: determined at same time as CEN08-193): 39 nM; IC50 ([8]; Ovarian, footnote 7: determined at same time as CEN08-180): 51 nM; IC50 [1]: 79 nM; IC50 [2]: 80 nM; IC50 [3]: 220 nM |
| CC12CCC(OC3OCC(O)C(O)C3O)CC1CCC1C2CCC2(C)C(C3=CC(=O)OC3)CCC12O (centres unmarked) [CEN08-177] |  |  |  |  |  |  |  |  |  | IC50 [4, 15]: 20 nM; IC50 [5, 15]: 40 nM; IC50 [6, 15]: 20 nM; IC50 ([7]; Colorectal, footnote 4: determined at same time as CEN08-177 and -178): 70 nM; IC50 ([8]; Ovarian, footnote 4: determined at same time as CEN08-177 and -178): 80 nM |
| C[C@]12CC[C@H](O[C@H]3OC[C@H](O)[C@@H](O)C3O)C[C@H]1CCC1C2CC[C@]2(C)[C@@H](C3=CC(=O)OC3)CC[C@]12O (stereo partly drawn) [CEN08-178, 3-O-digitoxigenin-L-riboside] |  |  |  |  |  |  |  |  |  | IC50 ([4]; Homo sapiens, A549, NSCLC, footnote 4: determined at same time as CEN08-177 and -178): 20 nM; IC50 ([5]; Homo sapiens, NCI-H1299, NSCLC, footnote 4: determined at same time as CEN08-177 and -178): 50 nM; IC50 ([6]; Homo sapiens, NCI-H460, NSCLC, footnote 4: determined at same time as CEN08-177 and -178): 20 nM; IC50 ([7]; Homo sapiens, HT-29, Colorectal, footnote 4: determined at same time as CEN08-177 and -178): 70 nM; IC50 ([8]; Homo sapiens, SK-OV-3, Ovarian, footnote 4: determined at same time as CEN08-177 and -178): 80 nM; IC50 [9]: < 80 nM |
| CON(C1C=C2CCC3C(CCC4(C)C(c5ccc(=O)oc5)CCC34O)C2(C)CC1)C1OCC(O)C(O)C1O (centres unmarked) [CEN08-185] |  |  |  |  | 5 nM | 2 nM | 9 nM | 13 nM | 15 nM |  |
| CC12CCC(OC3OCC(O)C(O)C3O)C=C1CCC1C2CCC2(C)C(c3ccc(=O)oc3)CCC12O (centres unmarked) [CEN08-190] |  |  |  |  | 4 nM | 4 nM | 6 nM | 6 nM | 28 nM |  |
| CC12CCC(OC3OCC(O)C(O)C3O)C=C1CCC1C2CCC2(C)C(c3ccc(=O)oc3)CCC12O (centres unmarked) [CEN08-192] |  |  |  |  | 11 nM | 8 nM | 16 nM | 16 nM | 72 nM |  |
